Measurements published in US7288533B2, “Topical application for treating toenail fungus” (priority 2004, dated 2007).

What was measured:
[1] = tested for use as a possible sedative; cited from earlier work
Candida albicans = assay: Hard surface carrier disinfection test (AOAC 991.47), colony count; format: cell-based; details: for Colonies Of Candida Albicans Observed: carrier 15 min in culture; for Effect on the fungus: 25% loading, summary of Examples 1-15
Protocol: The compositions are evaluated according to an approved surface carrier disinfection test (Official Methods of Analysis of the Association of Official Analytical Chemists protocol 991.47: Hard surface carrier test method). Cultures of Candida albicans are grown for 24 hours at room temperature in trypsin soy broth to a density of approximately McFarland standard #10. Sterile glass cylinders (Belco Cat. #2090-[…]) serve as carriers. The carriers are coated with the test composition or the control composition and subsequently submerged in 5 ml of the stock culture and allowed to remain there for 15 minutes. The carriers are aseptically transferred to sterile, dry Whatman #1 filter paper, and excess droplets of the inoculation medium are removed. The carriers are dried at 37° C. for 40 minutes and then aseptically transferred to 5 ml of trypsin soy broth. They are then sonicated for 10 minutes in as water bath at 25° C. Tubes containing the sonicated carriers are vortexed, and a portion of the medium is placed onto trypsin soy agar plates, and incubated overnight at 37° C. Microbial growth is assessed by counting colonies.

Row | Compound | Toxicity [1] | Colonies Of Candida Albicans Observed (Candida albicans; 0.1 wt. % in mineral oil) | Colonies Of Candida Albicans Observed (Candida albicans; 1.0 wt. % in mineral oil) | Colonies Of Candida Albicans Observed (Candida albicans; 10 wt. % in mineral oil) | Effect on the fungus (Candida albicans) | Colonies Of Candida Albicans Observed (Candida albicans; 25 wt. % in mineral oil) | Colonies Of Candida Albicans Observed (Candida albicans; 50 wt. % in mineral oil) | Colonies Of Candida Albicans Observed (Candida albicans; 75 wt. % in mineral oil)
1 | CCCC1(C)COB(c2ccc(C)cc2)OC1 [I.S. 813, 2-(p-tolyl)-(5-methyl, 5-propyl)-1,3,2,-dioxiborinane] | very low | – | – | – | – | – | – | –
2 | CC1CCOB(OCCC(C)OB2OCCC(C)O2)O1 (stereo not drawn) [compound S1, 2,2′-(1-methyltrimethylenedioxy) bis-(4-methyl-1,3,2-dioxaborinane)] | – | 8 | 2 | 0 | completely destroys the fungus | 0 | 0 | 0
3 | CC1CC(C)(C)OB(OB2OC(C)CC(C)(C)O2)O1 (stereo not drawn) [compound S2, 2,2′-oxybis (4,4,6-trimethyl-1,3,2-dioxaborinane)] | – | 11 | 1 | 0 | completely destroys the fungus | 0 | 0 | 0
